Measured values: PMC7449217, “The FDA-Approved Drug Nelfinavir Inhibits Lytic Cell-Free but Not Cell-Associated Nonlytic Transmission of Human Adenovirus” (Antimicrobial Agents and Chemotherapy, 2020)
Where a name gives a salt, the structure may show the parent alone.

Columns and labels:
Assay in all cases: fluorescence-based plaque-forming assay, A549 cells
Type in all cases: cell-based, human adenovirus
HAdV-A31 = test system: HAdV-A31
Protocol: (§1) Per 96-well plate, 15,000 A549 cells, 10,000 HeLa cells, 30,000 HBECs, 30,000 HCE cells, or 30,000 CMT-93 cells were seeded in 100 μl of the respective supplemented medium and allowed to settle for 1 h at room temperature (RT) prior to cell culture incubation at 37°C with 5% CO2 and 95% humidity. The following day, the medium was replaced with 50 μl of the respective virus stock dilution giving rise to 5 to 50 plaques per 96-well plate. Fifty microliters of nelfinavir to obtain a 0.1 to 50 μM final concentration or the DMSO solvent control was also added, both in supplemented medium. For each experiment, a noninfected, treated control was performed. For uphill plaque assays, the medium volume was increased to 150 μl with identical virus and drug concentrations. For wash-in/washout experiments, the virus was incubated on cells in supplemented medium for 1 h at 37°C, cells were washed with PBS, and a 100-μl drug dilution in supplemented medium was added. All experiments were performed in four technical replicates or as indicated. Cells were incubated under standard cell culture conditions. At the indicated times postinfection, the cells were fixed, and the nuclei were stained for 1 h at RT by the addition of 33 μl 16% (wt/vol) paraformaldehyde (PFA) and 4 μg/ml Hoechst 33342 (Sigma-Aldrich, St. Louis, MO, USA) in PBS. Cells were washed three times with PBS and stored in PBS supplemented with 0.02% N3 for infections with viruses harboring a GFP transgene. For wild-type (wt) viruses, cells were quenched in PBS supplemented with 50 mM NH4Cl, permeabilized using 0.2% (vol/vol) Triton X-100 in PBS, and blocked with 0.5% (wt/vol) bovine serum albumin (BSA) in PBS. Cells were incubated with 381.7 ng/ml mouse anti-HAdV hexon protein antibody (Mab8052; Sigma-Aldrich, St. Louis, MO, USA) and subsequently stained using 2 μg/ml goat anti-mouse-Alexa Fluor 594 (catalog number A21203 or A32742; Thermo Fisher Scientific, Waltham, MA, USA). Plates were imaged on either an IXM-XL or an IXM-C automated high-throughput fluorescence microscope (Molecular Devices, San Jose, CA, USA) using a 4× objective in wide-field mode. Hoechst staining was recorded in the 4′,6-diamidino-2-phenylindole (DAPI) channel, the fluorescein isothiocyanate (FITC)/GFP channel was acquired for viral GFP, and the tetramethyl rhodamine isothiocyanate (TRITC)/Texas Red channel was acquired for hexon immunofluorescence staining.
(§2) The infection phenotype for each well was quantified using Plaque2.0 ([101]). The number of plaques was determined based on the infection signal (viral GFP or hexon immunofluorescence staining). Nuclei stained with Hoechst were segmented by using CellProfiler ([178]). Infected nuclei were classified based on the median infection signal per nucleus in CellProfiler. Data were plotted, and the EC50 (infected and treated cells), the TC50 (noninfected, treated cells), as well as the corresponding standard errors (SE) were determined using curve fitting in GraphPad (version 8.1.2; GraphPad Software, Inc.) using three-parameter inhibitor concentration-versus-response nonlinear regression. The mean TI50 was calculated as the […] ratio of the means. The TI50 SE was calculated by error propagation.

HAdV-B11 = conditions: for TI50 (TC50/IC50): HAdV-B11 in A549, 3 dpi, Hexon
Protocol: as §1, §2

HAdV-B14a = test system: HAdV-B14a
Protocol: as §1, §2

HAdV-B14 = test system: HAdV-B14
Protocol: as §1, §2

HAdV-B21a = test system: HAdV-B21a
Protocol: as §1, §2

HAdV-B3-pIX-FS2A-GFP = test system: HAdV-B3-pIX-FS2A-GFP
Protocol: as §1, §2

HAdV-B34 = test system: HAdV-B34
Protocol: as §1, §2

HAdV-B35-pIX-FS2A-GFP = test system: HAdV-B35-pIX-FS2A-GFP
Protocol: as §1, §2

HAdV-B7 = conditions: for TI50 (TC50/IC50): HAdV-B7 in A549, 4 dpi, Hexon
Protocol: as §1, §2

HAdV-C2-dE3B-GFP-dADP = conditions: for EC50: Human adenovirus sp., plaque numbers
Protocol: as §1, §2

HAdV-C5 = test system: HAdV-C5
Protocol: as §1, §2

HAdV-D30 = test system: HAdV-D30
Protocol: as §1, §2

HAdV-D37 = test system: HAdV-D37
Protocol: as §1, §2

HAdV-D8 = test system: HAdV-D8
Protocol: as §1, §2

dl712 (HAdV-C5/2-dADP) = test system: dl712 (HAdV-C5/2-dADP)
Protocol: as §1, §2

rec700 (HAdV-C5/2) = test system: rec700 (HAdV-C5/2)
Protocol: as §1, §2

Cc1c(O)cccc1C(=O)N[C@@H](CSc1ccccc1)[C@H](O)CN1C[C@H]2CCCC[C@H]2C[C@H]1C(=O)NC(C)(C)C [Nelfinavir, Nelfinavir mesylate]
TI50 (TC50/IC50) (HAdV-A31; HAdV-A31 in A549, 6 dpi, Hexon): 1.35
EC50 (HAdV-A31; Human adenovirus sp., HAdV-A31 in A549, fixation 6 dpi, read-out Hexon, plaque numbers): 14.1 µM
TI50 (TC50/IC50) (HAdV-B11): 0.53
TI50 (TC50/IC50) (HAdV-B11; listed as nelfinavir): < 1
EC50 (HAdV-B11; Human adenovirus sp., HAdV-B11 in A549, fixation 3 dpi, read-out Hexon, plaque numbers): 28.9 µM
TI50 (TC50/IC50) (HAdV-B14a; HAdV-B14a in A549, 3 dpi, Hexon): 38.22
EC50 (HAdV-B14a; Human adenovirus sp., HAdV-B14a in A549, fixation 3 dpi, read-out Hexon, plaque numbers): 0.4 µM
TI50 (TC50/IC50) (HAdV-B14; HAdV-B14 in A549, 3 dpi, Hexon): 14.22
EC50 (HAdV-B14; Human adenovirus sp., HAdV-B14 in A549, fixation 3 dpi, read-out Hexon, plaque numbers): 0.84 µM
TI50 (TC50/IC50) (HAdV-B21a; HAdV-B21a in A549, 4 dpi, Hexon): 1.27
EC50 (HAdV-B21a; Human adenovirus sp., HAdV-B21a in A549, fixation 4 dpi, read-out Hexon, plaque numbers): 16 µM
TI50 (TC50/IC50) (HAdV-B3-pIX-FS2A-GFP; HAdV-B3-pIX-FS2A-GFP in A549, 3 dpi, Hexon): 1.50
EC50 (HAdV-B3-pIX-FS2A-GFP; Human adenovirus sp., A549): 10.2 µM
TI50 (TC50/IC50) (HAdV-B34; HAdV-B34 in A549, 4 dpi, Hexon): 6.40
EC50 (HAdV-B34; Human adenovirus sp., HAdV-B34 in A549, fixation 4 dpi, read-out Hexon, plaque numbers): 3.18 µM
TI50 (TC50/IC50) (HAdV-B35-pIX-FS2A-GFP; HAdV-B35-pIX-FS2A-GFP in A549, 4 dpi, Hexon): 6.13
EC50 (HAdV-B35-pIX-FS2A-GFP; Human adenovirus sp., A549): 2.49 µM
TI50 (TC50/IC50) (HAdV-B7): 0.75
TI50 (TC50/IC50) (HAdV-B7; listed as nelfinavir): < 1
EC50 (HAdV-B7; Human adenovirus sp., HAdV-B7 in A549, fixation 4 dpi, read-out Hexon, plaque numbers): 16.9 µM
TI50 (TC50/IC50) (HAdV-C2-dE3B-GFP-dADP; HAdV-C2-dE3B-GFP-dADP in A549, 4 dpi, GFP): 2.11
TI50 (TC50/IC50) (HAdV-C2-dE3B-GFP-dADP; HAdV-C2-dE3B-GFP-dADP in A549, 4 dpi, GFP, listed as nelfinavir): 2.1
TI50 (TC50/IC50) (HAdV-C2-dE3B-GFP-dADP; HAdV-C2-dE3B-GFP-dADP in A549, 5 dpi, GFP): 6.73
TI50 (TC50/IC50) (HAdV-C2-dE3B-GFP-dADP; HAdV-C2-dE3B-GFP-dADP in A549, 5 dpi, Hexon): 5.20
EC50 (HAdV-C2-dE3B-GFP-dADP; A549, HAdV-C2-dE3B-GFP-dADP in A549, fixation 4 dpi (96 hpi), read-out GFP): 5.82 µM
EC50 (HAdV-C2-dE3B-GFP-dADP; A549, HAdV-C2-dE3B-GFP-dADP in A549, fixation 5 dpi, read-out GFP): 2.23 µM
EC50 (HAdV-C2-dE3B-GFP-dADP; A549, HAdV-C2-dE3B-GFP-dADP in A549, fixation 5 dpi, read-out Hexon): 2.88 µM
TI50 (TC50/IC50) (HAdV-C5; HAdV-C5 in A549, 3 dpi, VI): 21.01
EC50 (HAdV-C5; Human adenovirus sp., HAdV-C5 in A549, fixation 3 dpi, read-out VI, plaque numbers): 0.57 µM
TI50 (TC50/IC50) (HAdV-D30; HAdV-D30 in A549, 5 dpi, Hexon): 3.18
EC50 (HAdV-D30; Human adenovirus sp., HAdV-D30 in A549, fixation 5 dpi, read-out Hexon, plaque numbers): 4.2 µM
TI50 (TC50/IC50) (HAdV-D37; HAdV-D37 in A549, 5 dpi, Hexon): 1.29
EC50 (HAdV-D37; Human adenovirus sp., HAdV-D37 in A549, fixation 5 dpi, read-out Hexon, plaque numbers): 16.7 µM
TI50 (TC50/IC50) (HAdV-D8; HAdV-D8 in A549, 5 dpi, Hexon): 2.36
EC50 (HAdV-D8; Human adenovirus sp., HAdV-D8 in A549, fixation 5 dpi, read-out Hexon, plaque numbers): 9.09 µM
EC50 (dl712 (HAdV-C5/2-dADP); Human adenovirus sp., A549): 6.87 µM
TI50 (TC50/IC50) (dl712 (HAdV-C5/2-dADP); dl712 (HAdV-C5/2-dADP) in A549, 5 dpi, Hexon): 2.18
EC50 (rec700 (HAdV-C5/2); Human adenovirus sp., A549): 0.07 µM
TI50 (TC50/IC50) (rec700 (HAdV-C5/2); rec700 (HAdV-C5/2) in A549, 4 dpi, Hexon): 177.41
